B1: TNMT: Papaver somniferum tetrahydroprotoberberine cis-N-methyltransferase, SEQ ID NO: 58 (protein, listed as Papaver somniferum)
chain: MGSIDEVKKESAGETLGRLLKGEIKDEELKKLIKFQFEKRLQWGYKSSHQEQLSFNLDFIKSLKKMEMSGEIETMNKETYELPSEFLEAVFGKTVKQSMCYFTHESATIDEAEEAAHELYCERAQIKDGQTVLDIGCGQGGLVLYIAQKYKNCHVTGLTNSKAQVNYLLKQAEKLGLTNVDAILADVTQYESDKTYDRLLMIEAIEHMKNLQLFMKKLSTWMTKESLLFVDHVCHKTFAHFFEAVDEDDWYSGFIFPPGCATILAANSLLYFQDDVSVVDHWVVNGMHMARSVDIWRKALDKNMEAAKEILLPGLGGSHETVNGVVTHIRTFCMGGYEQFSMNNGDEWMVAQLLFKKK

Experiments:
acetylcholinesterase = conditions: cited from earlier work
(S)-scoulerine = test: TNMT N-methylation test: GCY1101 versus GCY1127 fed (S)-scoulerine; format: cell-based, Saccharomyces cerevisiae
Description: When cells of the Block 2-Block 3 double integrant were incubated with (S)-scoulerine, compounds with exact masses of 342.1710 m/z and 340.1548 m/z were detected in addition to expected sanguinarine pathway intermediates. These exact masses, and their CIDs, correspond to N-methylscoulerine and N-methylcheilanthifoline, respectively^36. […] To determine whether TNMT was responsible for the N-methylation of cheilanthifoline and scoulerine, the Block 2 integrant strain harbouring CPR on a plasmid (strain GCY1101) was compared with the Block 2 integrant strain harbouring both CPR and TNMT on a plasmid (strain GCY1127).
Because the applicants lacked standards to quantify the N-methylated products and since the three compounds are similar in structure, they assumed equal ionization efficiency and estimated their relative proportions by peak area: when strain GCY1127 is fed (S)-scoulerine, the expected product N-methylstylopine is 33%, while N-methylscoulerine is 7% and N-methylcheilanthifoline is 60% (FIG. 8B).

Row | Molecule | described activity (acetylcholinesterase) | substrate acceptance for N-methylation ((S)-scoulerine)
1 | COc1cc2c(cc1O)[C@@H]1Cc3ccc(OC)c(O)c3C[N@+]1(C)CC2 [N-methylscoulerine] | acetylcholinesterase inhibitor | –
2 | B1 | – | accepts both scoulerine and cheilanthifoline as substrates

Reference: US20160340704A1, “METHOD OF MAKING A BENZYLISOQUINOLINE ALKALOID (BIA) METABOLITE, ENZYMES THEREFORE” (VALORBEC SOCIÉTÉ EN COMMANDITE, priority 2014, published 2016)
